Reference: paper PMC12615518, “Discovery of CRBN-recruiting PROTAC degraders of the METTL3-METTL14 complex” (Medicinal Chemistry Research, 2025)

Tests used:
[1] = system: MV4-11 cells; test: Cell viability assay (CCK-8) in MV4-11 cells; format: cell-based; conditions: Homo sapiens, MV4-11, 72 h, CCK-8, normalized to vehicle
Method: (§1) We proceeded to evaluate the cytotoxic activities of ZW30441 in AML cell lines by treating MOLM13 and MV4-11 cells with ZW30441 in increasing doses for 72 h.
Cell Lines and Culture Conditions: The human acute myeloid leukemia (AML) cell lines MOLM13 and MV4.11, as well as the HEK 293T epithelial kidney cell line, were obtained from the American Type Culture Collection (ATCC, USA). AML cells were maintained in RPMI-1640 medium (Gibco, USA) supplemented with 10% fetal bovine serum (FBS) and 1% penicillin-streptomycin (Sigma, Germany). HEK 293T cells were cultured in complete Dulbecco’s Modified Eagle Medium (DMEM) containing 10% FBS and 1% penicillin-streptomycin (Sigma). All cell lines were maintained under standard conditions in a humidified atmosphere at 37 °C with 5% CO₂.
Cell Viability Assay: AML cells were seeded in 96-well plates at a density of 5,000 cells per well and treated with varying concentrations of ZW30441 or vehicle (dimethyl sulfoxide, DMSO). Each condition was performed in triplicate. After the treatment period, cell viability was measured using the Cell Counting Kit-8 (CCK-8; APExBIO, USA, Cat# K1018) according to the manufacturer’s instructions. Absorbance was recorded at 450 nm using a SPECTROstar microplate reader (BMG LABTECH, USA).

[2] = system: MOLM13 cells; test: Cell proliferation assay in MOLM13 cells; format: cell-based, human; conditions: MOLM-13 cells, 5 µM, 4-day period
Method: as §1
Cell Proliferation Assay: To assess cell growth, 1×10⁵ cells were seeded per well in 24-well plates in triplicate and treated with 5 µM concentrations of the test compounds. The culture medium containing the compounds was refreshed every 48 hours, and cell densities were maintained below 1×10⁶ cells/mL through periodic dilution. Cell numbers were measured every other day over a 4-day period using a DS-11 automated cell counter (DeNovix, USA).

[3] = Metabolic stability in human liver microsomes; format: in vitro ADME; conditions: NADPH, 37 °C
Method: To evaluate the potential for advancing this compound to in vivo studies, the in vitro metabolic stability of this compound was determined in human liver microsomes. […] The flexible linker could then be one potential reason for overall metabolic instability. With this knowledge in hand, further optimization of the lead compound would be necessary before beginning in vivo studies. One potential approach is to introduce more rigid linker systems, thereby reducing molecular flexibility to enhance the metabolic stability while continuing to improve potency.
Materials for Microsomal Stability: Reagent-grade KH2PO4, K2HPO4, acetonitrile, methanol, and formic acid (LC-MS grade) were purchased from Fisher Scientific. Phenacetin (≥98% purity) and verapamil (≥98% purity) were obtained from Sigma-Aldrich. Reduced nicotinamide adenine dinucleotide phosphate (NADPH) and human liver microsomes (Lot No # 1210270) were obtained from MP Biomedicals and BioIVT, respectively. Ultrapure water was used for analysis.
Metabolic Stability: Metabolic stability was assessed using male human liver microsomes. ZW30441 was incubated at a concentration of 1 µM with 1 mg/mL of microsomal protein in 50 mM phosphate buffer (pH 7.4). […] Following protein precipitation, the samples were filtered using a Solvinert 96-well plate, centrifuged at 2000 rpm, and analyzed by LC–MS/MS. […]

[4] = molecular target: METTL3 (Homo sapiens, UniProt Q86U44); test: Immunoblotting (Western blot) degradation of METTL3 in MV4-11 cells; format: cell-based; set-up: Following treatment, total cellular proteins were extracted using RIPA buffer; endogenous in cells; host or cells: MV4-11 (MV4.11) human AML cells, ATCC
Method: All cell lines were maintained under standard conditions in a humidified atmosphere at 37 °C with 5% CO₂.
Western Blot Analysis: Following treatment, total cellular proteins were extracted using RIPA buffer (Auragene, Changsha, China). […] After washing, membranes were incubated with horseradish peroxidase (HRP)-conjugated secondary antibodies (anti-rabbit or anti-mouse IgG; 1:5000) for 2 hours at room temperature. Protein bands were visualized using an enhanced chemiluminescence (ECL) detection kit (Amersham Pharmacia), following the manufacturer's protocol. Band intensities were quantified using ImageJ software and normalized to ACTIN as a loading control. Data was analyzed using GraphPad Prism 9.

Sequence of METTL3 (Q86U44 2-580 limits assumed): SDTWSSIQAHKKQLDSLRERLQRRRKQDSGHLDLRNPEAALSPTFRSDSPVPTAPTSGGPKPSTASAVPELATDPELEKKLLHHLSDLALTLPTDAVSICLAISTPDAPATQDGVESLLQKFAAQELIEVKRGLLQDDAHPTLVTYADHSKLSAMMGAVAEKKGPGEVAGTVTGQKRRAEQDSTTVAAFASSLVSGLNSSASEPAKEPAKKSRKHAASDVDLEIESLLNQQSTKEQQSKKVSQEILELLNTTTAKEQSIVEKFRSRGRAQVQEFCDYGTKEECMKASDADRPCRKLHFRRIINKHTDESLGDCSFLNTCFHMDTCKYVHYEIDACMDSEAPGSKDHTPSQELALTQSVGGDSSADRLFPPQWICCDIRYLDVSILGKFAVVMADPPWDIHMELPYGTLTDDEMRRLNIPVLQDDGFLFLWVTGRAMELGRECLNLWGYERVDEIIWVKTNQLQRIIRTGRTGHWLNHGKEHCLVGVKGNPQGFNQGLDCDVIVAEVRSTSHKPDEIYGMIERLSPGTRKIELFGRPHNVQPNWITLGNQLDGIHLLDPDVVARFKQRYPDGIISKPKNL
Sequence of METTL3 (Q9HCE5 whole entry partner): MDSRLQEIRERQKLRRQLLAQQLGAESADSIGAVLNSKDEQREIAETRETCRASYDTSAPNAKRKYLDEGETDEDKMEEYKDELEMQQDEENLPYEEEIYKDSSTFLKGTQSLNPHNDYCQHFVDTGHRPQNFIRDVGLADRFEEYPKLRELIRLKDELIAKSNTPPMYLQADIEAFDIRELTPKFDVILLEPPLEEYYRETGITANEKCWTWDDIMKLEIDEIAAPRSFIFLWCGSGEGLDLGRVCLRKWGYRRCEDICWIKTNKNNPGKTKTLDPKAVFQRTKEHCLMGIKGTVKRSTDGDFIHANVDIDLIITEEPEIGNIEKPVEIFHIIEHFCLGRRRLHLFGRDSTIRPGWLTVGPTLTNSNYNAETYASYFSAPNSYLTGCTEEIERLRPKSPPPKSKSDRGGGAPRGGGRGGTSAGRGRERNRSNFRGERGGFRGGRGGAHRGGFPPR

intrinsic clearance (Clint) in human liver microsomes ([3]; 1 µM, 1 mg/mL microsomal protein): 152.1 ± 26.1 uL/min/mg of protein
half-life at 1 µM ([3]; male, human, liver microsomes, pH 7.4, 1 mg/mL microsomal protein, read-out: half-life (T1/2) in human liver microsomes): 4.6 ± 0.7 min
Dmax ([4]; MV4-11, MV4-11 cells, 24 h): 80%
% reduction in MV4-11 cells, 0.3 µM, METTL3 ([4]; MV4-11 cells, 0.3 µM, 24 h, immunoblotting, nd = no degradation): 58%
% reduction in MV4-11 cells, 1.0 µM, METTL3 ([4]; MV4-11 cells, 1.0 µM, 24 h, immunoblotting, nd = no degradation): 81%
DC50 ([4]; MV4-11 cells, 24 h, Western blot normalized against ACTIN): 440 nM
time of maximum degradation of METTL3 ([4]; MV4-11 cells, time course at 1 µM): 20 h
SMILES: CC1(C)CCN(Cc2cc(F)c(N3CC(=O)NC4(CCN(c5cc(NCCCCCCCCCC(=O)N6CCN(c7ccc8c(c7)CN(C7CCC(=O)NC7=O)C8=O)CC6)ncn5)CC4)C3)cc2F)CC1 (stereo not drawn) [Compound 4j, 3-(5-(4-(10-((6-(4-(4-((4,4-dimethylpiperidin-1-yl)methyl)-2,5-difluorophenyl)-2-oxo-1,4,9-triazaspiro[5.5]undecan-9-yl)pyrimidin-4-yl)amino)decanoyl)piperazin-1-yl)-1-oxoisoindolin-2-yl)piperidine-2,6-dione]
EC50 [1]: 2410 nM
cell growth inhibition compared to STM2457 and UZH2 [2]: comparable cell growth inhibition
